Test results published in the NIST ThermoML archive (doi:10.1016/j.tca.2016.09.007).
Numbers after ± are expanded uncertainties.

Details: Crystal; DTA

- Normal melting temperature: 38.00 ± 1 °C
Structure (SMILES): O=C1OCCO1 [ethylene carbonate]
